Patent US12668594B2, “TYK2 inhibitors and uses thereof” (Sudo Biosciences Limited, priority 2020, dated 2026)

Experiments:
TYK2 [1] = molecular target: T1, TYK2 (Homo sapiens, UniProt P29597); assay: HEK-Blue IFNα/β reporter assay (SEAP) for TYK2 pseudokinase inhibition; assay type: cell-based; settings: HEK-Blue IFNα/β cells, 1 ng/mL human recombinant IFNα
Experimental: (§1) HEK-Blue™ IL-23 and IFNα/β cells with a stably-integrated cytokine receptor and STAT3 or STAT1 express STAT-inducible secreted embryonic alkaline phosphatase (SEAP) reporter gene upon cytokine stimulation. These cells are plated in DMVEM (Gibco) containing 10% heat-inactivated FBS (Gibco) and 100 U/mL PenStrep (Gibco) at 37° C. under […] conditions for 20-22 hours. The cells are then pretreated with serially diluted test compounds for 60 min prior to stimulation with either 10 ng/mL human recombinant IL-23 (Miltenyl Biotech) or 1 ng/mL human recombinant IFNα (InvivoGen) for 22-24 hours for IL-23 or 16-18 h for IFNα. SEAP induction is measured using the QUANTI Blue™ Solution (InvivoGen) according to the manufacturer's instructions. Inhibition data are calculated by comparison to no inhibitor control wells for 000 inhibition and non-stimulated control wells for 10000 inhibition. Dose response curves are generated to determine the concentration required to inhibit 5000 of cellular response (IC50) as derived by non-linear regression analysis.

TYK2 [2] = molecular target: T1, TYK2; assay: HEK-Blue IL-23 reporter assay (SEAP) for TYK2 pseudokinase inhibition; assay type: cell-based; design: HEK-Blue™ IL-23 and IFNα/β cells with a stably-integrated cytokine receptor and STAT3 or STAT1; host or cells: HEK-Blue IL-23 / HEK-Blue IFNα/β cells (HEK293 background); settings: HEK-Blue IL-23 cells, 10 ng/mL human recombinant IL-23, SEAP reporter; read-out: IL23 IC50
Experimental: as §1

T1 sequence (P29597 whole entry): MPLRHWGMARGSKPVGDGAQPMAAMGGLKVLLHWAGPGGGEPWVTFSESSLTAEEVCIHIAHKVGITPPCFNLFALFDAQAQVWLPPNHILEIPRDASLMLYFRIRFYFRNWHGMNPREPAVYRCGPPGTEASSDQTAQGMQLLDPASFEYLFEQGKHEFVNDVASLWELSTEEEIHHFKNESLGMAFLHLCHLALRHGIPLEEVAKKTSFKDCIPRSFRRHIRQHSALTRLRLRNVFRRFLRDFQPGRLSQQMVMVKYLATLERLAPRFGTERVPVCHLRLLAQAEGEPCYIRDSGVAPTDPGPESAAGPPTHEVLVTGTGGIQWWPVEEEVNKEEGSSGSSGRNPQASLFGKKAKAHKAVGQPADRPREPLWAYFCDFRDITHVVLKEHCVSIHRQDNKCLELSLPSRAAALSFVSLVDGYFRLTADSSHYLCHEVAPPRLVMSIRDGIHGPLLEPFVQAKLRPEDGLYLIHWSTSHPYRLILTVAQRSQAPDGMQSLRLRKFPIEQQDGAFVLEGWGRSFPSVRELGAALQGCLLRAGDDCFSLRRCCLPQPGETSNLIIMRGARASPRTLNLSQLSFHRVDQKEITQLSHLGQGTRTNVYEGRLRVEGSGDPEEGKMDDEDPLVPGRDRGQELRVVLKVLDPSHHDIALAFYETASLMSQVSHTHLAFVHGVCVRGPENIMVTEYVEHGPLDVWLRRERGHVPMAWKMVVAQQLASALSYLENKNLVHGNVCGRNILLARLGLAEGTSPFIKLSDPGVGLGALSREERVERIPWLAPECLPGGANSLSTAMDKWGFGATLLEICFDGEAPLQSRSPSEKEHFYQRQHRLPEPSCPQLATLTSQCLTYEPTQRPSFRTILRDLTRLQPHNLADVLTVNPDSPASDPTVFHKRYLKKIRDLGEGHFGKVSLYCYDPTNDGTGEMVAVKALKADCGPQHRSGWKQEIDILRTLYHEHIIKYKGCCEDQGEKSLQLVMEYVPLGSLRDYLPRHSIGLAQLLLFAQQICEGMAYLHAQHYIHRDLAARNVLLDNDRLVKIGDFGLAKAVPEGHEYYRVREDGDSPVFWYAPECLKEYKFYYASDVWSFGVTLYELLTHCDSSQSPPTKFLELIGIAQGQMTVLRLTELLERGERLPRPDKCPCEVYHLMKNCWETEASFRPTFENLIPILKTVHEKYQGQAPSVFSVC

Structure (SMILES)	IC50 (TYK2 [1]) [µM]	IC50 (TYK2 [2]) [µM]
Cc1cc(Nc2cc3c(cn2)c(=O)[nH]n3-c2cccnc2)nc(C)n1 [Compound I-30, 6-((2,6-dimethylpyrimidin-4-yl)amino)-1-(pyridin-3-yl)-1,2-dihydro-3H-pyrazolo[4,3-c]pyridin-3-one]	10 to 30	< 10
Cc1cc(Nc2cc3c(cn2)c(=O)[nH]n3-c2cccc(Cl)c2)nc(C)n1 [Compound I-31, 1-(3-chlorophenyl)-6-((2,6-dimethylpyrimidin-4-yl)amino)-1,2-dihydro-3H-pyrazolo[4,3-c]pyridin-3-one]	< 10	< 10
Cc1cc(Nc2cc3c(cn2)c(=O)[nH]n3-c2ccc(S(C)(=O)=O)cc2)nc(C)n1 [Compound I-32, 6-((2,6-dimethylpyrimidin-4-yl)amino)-1-(4-(methylsulfonyl)phenyl)-1,2-dihydro-3H-pyrazolo[4,3-c]pyridin-3-one]	> 90	10 to 30
COc1cccc(-n2[nH]c(=O)c3cnc(Nc4cc(C)nc(C)n4)cc32)n1 [Compound I-33, 6-((2,6-dimethylpyrimidin-4-yl)amino)-1-(6-methoxypyridin-2-yl)-1,2-dihydro-3H1-pyrazolo[4,3-c]pyridin-3-one]	< 10	< 10
CC(C)(C)OC(=O)Nc1cc2c(cn1)c(=O)[nH]n2-c1ccccc1 [Compound I-35, tert-butyl N-{3-oxo-1-phenyl-1H,2H,3H-pyrazolo[4,3-c]pyridin-6-yl}carbamate]	> 90	> 90
COc1cccc(-n2[nH]c(=O)c3cnc(Nc4ccc(F)cn4)cc32)n1 [Compound I-36, 6-((5-fluoropyridin-2-yl)amino)-1-(6-methoxypyridin-2-yl)-1,2-dihydro-3H-pyrazolo[4,3-c]pyridin-3-one]	< 10	< 10
COc1cccc(-n2[nH]c(=O)c3cnc(Nc4ccc(F)cn4)cc32)c1F [Compound I-38, 1-(2-fluoro-3-methoxyphenyl)-6-((5-fluoropyridin-2-yl)amino)-1,2-dihydro-3H-pyrazolo[4,3-c]pyridin-3-one]	10 to 30	< 10
COc1cccc(-n2[nH]c(=O)c3cnc(Nc4ccc(F)cn4)cc32)c1 [Compound I-39, 6-((5-fluoropyridin-2-yl)amino)-1-(3-methoxyphenyl)-1,2-dihydro-3H-pyrazolo[4,3-c]pyridin-3-one]	< 10	< 10
COc1cccc(-n2[nH]c(=O)c3cnc(Nc4ccc(C#N)cn4)cc32)c1 [Compound I-40, 6-((1-(3-methoxyphenyl)-3-oxo-2,3-dihydro-1H-pyrazolo[4,3-c]pyridin-6-yl)amino)nicotinonitrile]	< 10	< 10
COc1ccc(Nc2cc3c(cn2)c(=O)[nH]n3-c2cccc(OC)c2)nc1 [Compound I-41, 1-(3-methoxyphenyl)-6-((5-methoxypyridin-2-yl)amino)-1,2-dihydro-3H-pyrazolo[4,3-c]pyridin-3-one]	< 10	< 10
COc1cccc(-n2[nH]c(=O)c3cnc(Nc4ccc(C(F)(F)F)cn4)cc32)c1 [Compound I-42, 1-(3-methoxyphenyl)-6-((5-(trifluoromethyl)pyridin-2-yl)amino)-1,2-dihydro-3H-pyrazolo[4,3-c]pyridin-3-one]	< 10	< 10
COc1cccc(-n2[nH]c(=O)c3cnc(Nc4cc(C#N)ccn4)cc32)c1 [Compound I-44, 2-((1-(3-methoxyphenyl)-3-oxo-2,3-dihydro-1H-pyrazolo[4,3-c]pyridin-6-yl)amino)isonicotinonitrile]	< 10	< 10
COc1cccc(-n2[nH]c(=O)c3cnc(Nc4cc(OC)ccn4)cc32)c1 [Compound I-45, 1-(3-methoxyphenyl)-6-((4-methoxypyridin-2-yl)amino)-1,2-dihydro-3H-pyrazolo[4,3-c]pyridin-3-one]	> 90	10 to 30
